Here are results for 13 compounds from US7666868B2, “N-sulphonylpyrroles and their use as histone deacetylase inhibitors” (4SC AG, priority 2005, dated 2010).

The test has as its system HeLa cervical carcinoma cell line. The test is described as follows: Cellular cytotoxicity assay (Alamar Blue / Resazurin). Format: cell-based. To be noted: Homo sapiens; HeLa cells, 48 hours incubation; read-out: IC50 (anti-proliferative/cytotoxic potency). How it is done:
The anti-proliferative activity of the histone deacetylase inhibitory compounds as described herein, is evaluated with the HeLa cervical carcinoma cell line (ATCC CCL2) using the Alamar Blue (Resazurin) cell viability assay (O'Brien et al. Eur J Biochem 267, 5421-5426, 2000). Resazurin is reduced to the fluorescent resorufin by cellular dehydrogenase activity, correlating with viable, proliferating cells. Test compounds are dissolved as 10 mM solutions in dimethylsulfoxide (DMSO) and subsequently diluted in semi-logarithmic steps. HeLa cells are seeded into 96 well flat bottom plates at a density of 3000 cells per well in a volume of 200 μl per well. 24 hours after seeding 1 μl each of the compound dilutions are added into each well of the 96 Well plate. Each compound dilution is tested as quadruplicates. Wells containing untreated control cells are filled with 200 μl DMEM medium containing 0.5% v:v DMSO. The cells are then incubated with the substances for 48 hours at 37° C. in a humidified atmosphere containing 5% carbon dioxide. To determine the viability of the cells, 20 μl of an Resazurin solution (Sigma; 90 mg/l) are added. After 4 hours incubation at 37° C. the fluorescence is measured at an extinction of 544 nm and an emission of 590 nm. For the calculation of the cell viability the emission value from untreated cells is set as 100% viability and the emission rates of treated cells are set in relation to the values of untreated cells. Viabilites are expressed as % values. The corresponding IC50 values of the compounds for cytotoxic activity are determined from the concentration-effect curves by means of non-linear regression.

pIC50: −log10 of the molar value.

In the case of `O=C(/C=C/c1ccn(S(=O)(=O)c2ccc(-c3cccc(CN4CCOCC4)c3)cc2)c1)NO` [Compound 64, (E)-N-Hydroxy-3-[1-(3′-morpholin-4-ylmethyl-biphenyl-4-sulfonyl)-1H-pyrrol-3-yl]-acrylamide], the pIC50 was 5.17 to 7.85.
For `O=C(/C=C/c1ccn(S(=O)(=O)c2ccc(-c3ccc4c(c3)OCO4)cc2)c1)NO` [Compound 65, (E)-3-[1-(4-Benzo[1,3]dioxol-5-yl-benzenesulfonyl)-1H-pyrrol-3-yl]-N-hydroxy-acrylamide], the pIC50 is 5.17 to 7.85.
With `Nc1cccc(-c2ccc(S(=O)(=O)n3ccc(/C=C/C(=O)NO)c3)cc2)c1` [Compound 66, (E)-3-[1-(3′-Amino-biphenyl-4-sulfonyl)-1H-pyrrol-3-yl]-N-hydroxy-acrylamide], the pIC50 was 5.17 to 7.85.
As to `O=C(/C=C/c1ccn(S(=O)(=O)c2ccc(-c3ccc(O)cc3)cc2)c1)NO` [Compound 67, (E)-N-Hydroxy-3-[1-(4′-hydroxy-biphenyl-4-sulfonyl)-1H-pyrrol-3-yl]acrylamide], the pIC50 was 5.17 to 7.85.
As to `CN1CCC(CCOc2ccc(-c3ccc(S(=O)(=O)n4ccc(C=CC(=O)NO)c4)cc3)cc2)CC1` [Compound 68, (E)-N-Hydroxy-3-(1,4′-[2-(1-methyl-piperidin-4-yl)-ethoxy]biphenyl-4-sulfonyl)-1H-pyrrol-3-yl)-acrylamide], the pIC50 was 5.17 to 7.85.
`O=C(/C=C/c1ccn(S(=O)(=O)c2ccc(-c3ccc4c(c3)CCO4)cc2)c1)NO` [Compound 70, (E)-3-{1-[4-(2,3-Dihydro-benzofuran-5-yl)-benzenesulfonyl]-1H-pyrrol-3-yl}-N-hydroxy-acrylamide]: the pIC50 was 5.17 to 7.85.
Regarding `O=C(/C=C/c1ccn(S(=O)(=O)c2ccc(-c3ccc(N4CCOCC4)cc3)cc2)c1)NO` [Compound 71, (E)-N-Hydroxy-3-[1-(4′-morpholin-4-yl-biphenyl-4-sulfonyl)-1H-pyrrol-3-yl]-acrylamide], the pIC50 is 5.17 to 7.85.
Under `O=C(/C=C/c1ccn(S(=O)(=O)c2ccc(-c3cccc(OCCCN4CCCC4)c3)cc2)c1)NO` [Compound 72, (E)-N-Hydroxy-3-{1-[3′-(3-pyrrolidin-1-yl-propoxy)-biphenyl-4-sulfonyl]-1H-pyrrol-3-yl}-acrylamide] stands 5.17 to 7.85; under `CN1CCN(CCCOc2cccc(-c3ccc(S(=O)(=O)n4ccc(/C=C/C(=O)NO)c4)cc3)c2)CC1` [Compound 73, (E)-N-Hydroxy-3-(1-{3′-[3-(4-methyl-piperazin-1-yl)-propoxy]-biphenyl-4-sulfonyl}-1H-pyrrol-3-yl)-acrylamide], 5.17 to 7.85; under `O=C(/C=C/c1ccn(S(=O)(=O)c2ccc(-c3cccc(OCCCN4CCOCC4)c3)cc2)c1)NO` [Compound 74, (E)-N-Hydroxy-3-{1-[3′-(3-morpholin-4-yl-propoxy)-biphenyl-4-sulfonyl]-1H-pyrrol-3-yl}-acrylamide], 5.17 to 7.85.
Under `CN1CCN(CCOc2ccc(-c3ccc(S(=O)(=O)n4ccc(/C=C/C(=O)NO)c4)cc3)cc2)CC1` [Compound 76, (E)-N-Hydroxy-3-(1-{4′-[2-(4-methyl-piperazin-1-yl)-ethoxy]-biphenyl-4-sulfonyl}-1H-pyrrol-3-yl)-acrylamide] stands 5.17 to 7.85; under `O=C(/C=C/c1ccn(S(=O)(=O)c2ccc(-c3ccc(OCCCN4CCOCC4)cc3)cc2)c1)NO` [Compound 78, (E)-N-Hydroxy-3-{1-[4′-(3-morpholin-4-yl-propoxy)-biphenyl-4-sulfonyl]-1H-pyrrol-3-yl}-acrylamide], 5.17 to 7.85; under `CN1CCN(CCCOc2ccc(-c3ccc(S(=O)(=O)n4ccc(/C=C/C(=O)NO)c4)cc3)cc2)CC1` [Compound 79, (E)-N-Hydroxy-3-(1-{4′-[3-(4-methyl-piperazin-1-yl)-propoxy]-biphenyl-4-sulfonyl}-1H-pyrrol-3-yl)-acrylamide], 5.17 to 7.85.
